According to US6362212B1, “Oxime derivative and bactericide containing the same as active ingredient” (Shionogi & Company, Ltd., priority 1994, dated 2002):

Assays:
Type in all cases: in vivo
[1] = system: Pseudoperonospora cubensis; assay: Controlling effect on Pseudoperonospora cubensis by foliage application (pot experiment); settings: foliage spray on cucumber (var. TSUKUBASHIROIBO) first leaves, lesion area after 10 days in moist chamber at 20° C.
Protocol: The following Test Examples illustrate the effects of the fungicide of the present invention. (I. Controlling effects on various plant diseases by foliage application (pot experiment)) A test compound was dissolved in a small amount of N,N-dimethylformamide, and the solution was diluted to a given concentration with distilled water containing a spreader. Thus, a liquid sample to be tested was prepared. The liquid sample was sprayed to test plants, and 24 hours thereafter, pathogens were inoculated by the method described below. […] The seeds of cucumber (var.: […]) were sown in plastic cups (each 9 cm in diameter), followed by cultivation for 2 to 3 weeks. The test compound in the form of a solution or suspension was sprayed to the surface of their first leaves, and a zoosporangia suspension of Pseudoperonospora cubensis cultured on cucumber leaves was dropped on the above leaf surfaces to inoculate the test plants with the pathogen. After the inoculation, the plants were kept in a moist chamber at 20° C. for 10 days. Then, the area of the lesions around the inoculum were observed and the percent control was calculated.

[2] = system: Erysiphe graminis f. sp. tritici; assay: Controlling effect on Erysiphe graminis f. sp. tritici by foliage application (pot experiment); settings: foliage spray on wheat (cv. NORIN No. 61) seedlings, infected area after 10 days in greenhouse at 20° C.; for pest or weed control at 500 ppm: Blumeria graminis, foliar, 240 h, read-out: Controlling effect on ErYsiphe graminis f. sp. tritici by foliage application at 500 ppm (percent control)
How it was run: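 Wheat seedlings (cv. NORIN No. 61, 2-3 weeks old) sprayed with compound in DMF diluted in water with spreader, then inoculated with conidia 24 hours later. Kept in greenhouse at 20 °C for 10 days; percent control calculated from infected leaf area.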

Sphaerotheca fuliginea = assay: Controlling effect on Sphaerotheca fuliginea by foliage application (pot experiment); settings: foliage spray on cucumber (cv. TSUKUBASHIROIBO) first leaves, infected area after 10 days in greenhouse at 20° C.; for pest or weed control at 500 ppm: Podosphaera fuliginea, in Cucumis sativus, foliar, 240 h, read-out: Controlling effect on Sphaerotheca fuliginea by foliage application at 500 ppm (percent control)
How it was run: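 First leaves of cucumber seedlings, 2-3 weeks old, were sprayed with compound (DMF solution diluted in water with spreader). They were inoculated 24 h later with a Sphaerotheca fuliginea conidia spray and kept 10 days at 20° C in a greenhouse. Percent control was calculated from infected leaf area.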

Pyricularia oryzae = settings: foliage spray on rice seedlings (cv. […]), number of lesions six days after the inoculation
Puccinia coronata = assay: Controlling effect on Puccinia coronata by foliage application (pot experiment); settings: foliage spray on oat (cv. PC-38) seedlings, infected area after 1 day moist chamber and 8 days greenhouse at 20° C.
Protocol: The following Test Examples illustrate the effects of the fungicide of the present invention. (I. Controlling effects on various plant diseases by foliage application (pot experiment)) A test compound was dissolved in a small amount of N,N-dimethylformamide, and the solution was diluted to a given concentration with distilled water containing a spreader. Thus, a liquid sample to be tested was prepared. The liquid sample was sprayed to test plants, and 24 hours thereafter, pathogens were inoculated by the method described below. […] The seeds of oat (cv.: PC-38) were sown in plastic cups (each 9 cm in diameter), followed by cultivation for 2 to 3 weeks. The test compound in the form of a solution or suspension was sprayed to the seedlings. Spores of Puccinia coronata cultured on oat leaves were collected, diluted about 10-fold with talc, and sprayed to the test plants to inoculate the plants with the pathogen. After the inoculation, the plants were kept in a moist chamber at 20° C. for 1 day and then in a greenhouse at 20° C. for 8 days. The infected area on the leaf was observed, and the percent control was calculated.

Compound | Controlling effect on Pseudoperonospora cubensis by foliage application at 500 ppm (percent control) [1] [percent control] | Controlling effect on ErYsiphe graminis f. sp. tritici by foliage application at 500 ppm (percent control) [2] [percent control] | Controlling effect on Sphaerotheca fuliginea by foliage application at 500 ppm (percent control) (Sphaerotheca fuliginea) | Controlling effect on PYricularia orYzae by foliage application at 500 ppm (percent control) (Pyricularia oryzae) | Controllng effect on Puccinia coronata by foliage application at 500 ppm (percent control) (Puccinia coronata) | pest or weed control at 500 ppm [2] [%] | pest or weed control at 500 ppm (Sphaerotheca fuliginea) [%]
CON=C(c1ccno1)c1ccccc1COc1ccccc1C (single isomer, unassigned) [512A] | 100 | 97 | 100 | 90 |  |  | 
CON=C(c1ccno1)c1ccccc1COc1ccccc1C (single isomer, unassigned) [512B] | 100 | 97 | 100 | 97 |  |  | 
CON=C(c1ccno1)c1ccccc1COc1cc(C)ccc1C (single isomer, unassigned) [536A] |  | 97 | 100 |  | 90 |  | 
CON=C(c1ccno1)c1ccccc1COc1ccc(Cl)cc1C (single isomer, unassigned) [541B] | 100 | 90 | 100 | 70 |  |  | 
CON=C(c1cc(C)no1)c1ccccc1COc1cccc(C)c1 (single isomer, unassigned) [613A] | 70 | 90 | 100 | 70 |  |  | 
CON=C(c1cc(C)no1)c1ccccc1COc1ccc(C)cc1 (single isomer, unassigned) [614B] | 100 | 70 | 97 | 70 |  |  | 
CON=C(c1cc(C)no1)c1ccccc1COc1ccc(Cl)cc1C (single isomer, unassigned) [641A] | 100 | 90 | 100 | 70 |  |  | 
CON=C(c1cc(C)no1)c1ccccc1COc1ncc(C(F)(F)F)cc1Cl (single isomer, unassigned) [690A, 2-(3-chloro-5-trifluoromethyl-2-pyridyloxymethyl)phenyl 3-methylisoxazol-5-yl ketone O-methyloxime] | 100 |  |  | 97 |  | 100 | 100
CON=C(C1=NCCN1C)c1ccccc1COc1cc(C)ccc1C [Compound No. 1136] |  | 90 | 100 |  | 90 |  | 
CON=C(c1ccccc1ON=C(C)c1cccc(C(F)(F)F)c1)C1NCCS1 (stereo not drawn) [Compound No. 2799, 2-[(α-methyl-3-trifluoromethylbenzylidene)aminooxy]phenyl thiazolidin-2-yl ketone O-methyloxime] | 95 |  |  | 100 |  | 97 | 100
CON=C(c1ccccc1CON=C(C)c1cccc(C(F)(F)F)c1)C1SCCN1C (stereo not drawn) [Compound No. 2839] | 95 | 97 | 100 | 90 |  |  | 
CON=C(c1ccccc1COc1cccnc1Cl)n1ccnc1 [compound 57] |  | 70 | 90 |  | 90 |  | 
CON=C(c1ccccc1Oc1ccccc1)c1nccn1C [compound 161] |  | 70 | 100 |  | 97 |  | 
CCON=C(c1ccccc1COc1ccccc1)n1cncn1 [compound 275] |  | 90 | 100 |  | 90 |  | 
C=CCON=C(c1ccccc1COc1ccccc1)n1cccn1 [compound 298] |  |  |  |  | 70 |  | 
CON=C(c1nnco1)c1ccccc1COc1cccc(Cl)c1 [compound 706] | 100 | 90 | 100 | 70 |  |  | 
CCc1cccc(OCc2ccccc2C(=NOC)c2nnco2)c1 [compound 716] | 100 | 70 | 100 | 70 |  |  | 
CON=C(c1nnco1)c1ccccc1COc1cc(Cl)ccc1Cl [compound 731] | 100 | 70 | 100 | 70 |  |  | 
CON=C(c1noc(C)n1)c1ccccc1COc1ccc(C)cc1 [compound 914] |  |  |  |  | 97 |  | 
CON=C(c1ccccc1COc1ccccc1)c1nnnn1C [compound 1001] |  |  |  |  | 70 |  | 
CON=C(C1=NCCN1C)c1ccccc1COc1cccc(C)c1 [compound 1113] |  |  |  |  | 70 |  | 
CON=C(c1nnn(C)n1)c1ccccc1COc1ccccc1 [compound 2001] |  |  | 70 |  | 70 |  | 
